Reference: patent US20040241839A1, “Culturing neural stem cells” (priority 2003, published 2004)
Read-outs that look alike come from different tables or passages of the source.

Legend:
[1] = tested on: dissociates of postnatal C57/BL mouse forebrain (neurospheres); assay: Formation and growth of neurospheres in serum-free semi-solid methylcellulose medium with growth factors; format: cell-based
Procedure: Preparation of single-cell suspensions and cloning in MC. Dissociates of postnatal (5-7 days old) C57/BL mouse forebrain (subependymal zone and hippocampus) were used to generate suspended clones under anchorage and serum withdrawal in semi-solid methyl cellulose (MC). The procedures were performed as previously described Kukekov et al., Glia 21:399-407, 1997; and Kukekov et al., Exp Neurol, 156:333-344, 1999, with some additional modifications. Brain samples (approximately 10 mm^3) were minced, transferred to a beaker containing a solution of 0.25% trypsin in 0.1 mM EDTA (mixture 4:1), and slowly stirred on a magnetic plate at roomm temperature for 15 minutes. After trituration through a plastic 5 ml pipette and a fire-polished Pasteur pipette, the dissociate was washed (5-8 times in 5 ml of medium) to eliminate cellular debris.
The resultant suspension was filtered through sterile gauze, and verified to contain only single cells which were counted with a hemocytometer. Finally, cells were resuspended in 0.8% MC-based medium (NeuroCult medium, Cat. #03237, StemCell Technologies, Vancouver, BC) and plated at a clonal density (i.e., about […]) in 6-well plates coated with a non-adhesive substrate, i.e., poly 2-hydroxyethyl methacrylate (poly-HEME, Sigma) according to the manufacturer's instructions. Cells were maintained in a 37° C. incubator with 95% air, 5% CO2, and 100% humidity. Clones became visible under an inverted phase microscope approximately one week after plating.
Morphometric analysis of neurospheres. The number and diameters of neurospheres was assessed using an inverted phase microscope equipped with a size covering net. The number of neurospheres in each experimental group was normalized to the protein content. Aliquots of suspensions were removed for protein measurement using Pierce BCA protein Kit (Pierce, Rockford, Ill.) according to the manufacturer's instructions. Measurements were taken following one, two and three weeks of growth in vitro.
Using the above-described methods, dissociates of postnatal(5-7 days old) C57/BL mouse forebrain, (subependymal zone and hippocampus) were used to generate suspended clones under anchorage and serum withdrawal in semi-solid MC (MC-clones) Equal amounts of dissociates were placed in serum-free DMEM/F12, 1:1 medium supplemented with 0.8% MC and insulin (NeuroCult medium, Cat. #03237, StemCell Technologies, Vancouver, BC) in the presence of (i) 10 ng/ml EGF plus 10 ng/ml FGF2, (ii) 10 μM LPA alone and (iii) EGF+FGF2 in combination with LPA. Growth factors, i.e., EGF, FGF2 were obtained from Peprotech, Inc., and LPA was obtained from LPA-Avanti Polar Lipids, Inc. Freshly prepared aliquots of EGF and FGF2 were added every 3 days during a 21 day interval of clone (neurosphere) generation. The numbers and diameters of neurospheres were measured at the end of the third week in vitro.
Using methods described above, cells were recovered after complete dissociation of mouse forebrain to single cells and plated at a density of ˜10^4 cells/well in serum free semi-solid methylcellulose medium containing growth factors, ie., 10 μM oleoyl (C18:1) LPA, or 10 ng/ml each of EGF and FGF2. […] Neurosphere growth persisted during the second week in semi-solid medium continuously supplemented with LPA or EGF+FGF2 (FIG. 1B).

[2] = tested on: neurospheres (AC133 and Sca-1 antigens); assay: Immunocytochemical staining of neurospheres grown in the presence of LPA; format: cell-based, mouse
Procedure: Neurospheres were grown in suspension in the presence of LPA for 18 days, then transferred onto cover slips coated with laminin and poly-L-ornithine. The neurospheres attached within 6 hours and were allowed to spread and differentiate for an additional 48 hours. Cover slips were then fixed and processed for immunostaining. Antibodies used in these studies included antibodies against AC133 antigen (Miltenyi Biotech) and Sca-1 antigen (BD Pharmingen), against LPA receptors LPA1, LPA2 and LPA3 Exalpha Biologicals Inc., Antibody Solutions), βIII-tubulin (ovance, Inc.), and nestin (Chemicon, Inc.), CNPase (Sigma). To study the effect of LPA on differentiation of neurospheres, in some cases double immunostaining of LPA receptors and neuronal markers was performed. Results were analyzed using confocal microscopy. Visualization of the proteins was performed by two-color fluorescent dye labeling (i.e., red-Texas Red, green-Alexa Green) and subsequent analysis in laser confocal microscope appropriately equipped with filters of different wavelengths. The images were taken at the same gain setting for each filter within one experimental set. As an example, referring to FIG. 2A, B, the presence of AC133 antigen was detected by red fluorescence and that of Sca-1 by green fluorescence using separate wavelength visualization. AC133/Sca-1 co-localization was detected as yellow fluorescence using dual wavelength visualization (shown in right column of FIG. 2).
Neurospheres were grown using methods described above in the presence of LPA in semi-solid medium for two weeks. Aliquots of neurospheres were then removed and placed onto glass cover slips coated with laminin/poly-L-ornithine. Fresh medium without methyl cellulose and FBS (10% final) were added to initiate neurosphere adherence to the cover slip surface. The neurospheres became completely attached within 4 to 6 hours after transfer. […]
Cover slips were then fixed, stained with antibodies against AC133, Sca-1, LPA1, LPA2 and LPA3 receptors and analyzed using immunofluorescent techniques, as described above. […]

[3] = tested on: LPA-induced formation of neurospheres; settings: for size of neurospheres generated by LPA: 2 weeks (FIG. 1C); for numbers of neurospheres formed: 2 weeks (FIG. 1D)
Procedure: In (C, D), neurospheres were maintained in culture for 2 weeks in the presence of LPA alone or LPA plus 1 μM or 50 μM DGPP. The number/field and the size of at least 200 neurospheres formed at 2 weeks were counted. The results are presented as mean +SEM of three independent experiments from four different neurosphere preparations. Unpaired Student's t-test was used to assess significance of the mean difference, and F test was used to compare variances.
To examine the potential involvement of LPA receptors in the LPA-induced formation of neurospheres, the effect of DGPP at low concentration (i.e., 1 μM) and high concentration (i.e., 50 μM) was compared.

LPA1 receptor = LPA1 receptor (Homo sapiens, UniProt Q92633); settings: high concentration; cited from earlier work
LPA1 receptor, sequence (Q92633 whole entry): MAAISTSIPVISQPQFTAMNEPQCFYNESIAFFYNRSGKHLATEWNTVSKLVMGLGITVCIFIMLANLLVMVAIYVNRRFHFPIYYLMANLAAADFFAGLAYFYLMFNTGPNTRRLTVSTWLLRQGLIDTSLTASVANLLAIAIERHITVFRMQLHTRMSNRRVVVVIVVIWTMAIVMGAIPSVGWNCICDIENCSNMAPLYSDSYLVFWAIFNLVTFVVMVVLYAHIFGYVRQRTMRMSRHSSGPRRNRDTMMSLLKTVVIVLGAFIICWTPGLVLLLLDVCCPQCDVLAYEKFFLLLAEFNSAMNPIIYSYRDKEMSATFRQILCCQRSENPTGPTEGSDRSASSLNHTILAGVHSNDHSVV

LPA3 receptor = molecular target: T1, LPA3 receptor (Homo sapiens, UniProt Q9UBY5); settings: cited from earlier work
T1 sequence (Q9UBY5 1-353): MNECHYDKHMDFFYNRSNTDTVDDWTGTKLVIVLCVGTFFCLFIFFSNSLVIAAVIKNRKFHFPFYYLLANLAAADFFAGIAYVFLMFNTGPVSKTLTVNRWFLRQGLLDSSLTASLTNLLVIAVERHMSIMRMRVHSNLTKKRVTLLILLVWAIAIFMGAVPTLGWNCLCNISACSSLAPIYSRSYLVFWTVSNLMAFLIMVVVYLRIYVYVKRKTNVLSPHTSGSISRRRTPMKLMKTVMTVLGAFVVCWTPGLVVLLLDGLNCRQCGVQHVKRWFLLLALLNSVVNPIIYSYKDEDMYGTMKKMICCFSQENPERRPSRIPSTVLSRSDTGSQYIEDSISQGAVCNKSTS

[4] = 10 μM LPA or 10 ng/ml each EGF and FGF2
[5] = grown two weeks in LPA, attached to cover slips

| Molecule | diameter of neurospheres, Maximum [1, 4] | diameter of neurospheres, Median [1, 4] | diameter of neurospheres, Minimum [1, 4] | diameter of neurospheres, Mode [1, 4] | number of neurospheres per field (Count) [1, 4] | diameter of neurospheres, Mean ([1]; 10 μM LPA or 10 ng/ml each EGF and FGF2, serum-free methylcellulose medium) | time for which neurosphere development was sustained ([1]; continuous supplementation with growth factor) | formation of neurospheres ([1]; first week in culture, 10 μM oleoyl LPA or 10 ng/ml each EGF and FGF2) | Sca-1 antigen and AC133 in the residual core of neurospheres grown attached ([2]; grown attached in the presence of the growth factor) | co-localization of AC133 and Sca-1 throughout the neurospheres [2, 5] | expression of AC133 and Sca-1 antigens in neurospheres [2, 5] | size of neurospheres generated by LPA ([3]; DGPP 1 μM plus LPA) | numbers of neurospheres formed ([3]; DGPP 1 μM plus LPA) | size of neurospheres generated by LPA ([3]; DGPP 50 μM plus LPA) | numbers of neurospheres formed ([3]; DGPP 50 μM plus LPA, p=0.0056) | LPA-induced formation and growth of neurospheres ([3]; concentration not given) | LPA activation of LPA1 receptor (LPA1 receptor) | LPA activation of LPA3 receptor (LPA3 receptor; high concentration) | effect on LPA3 receptor (LPA3 receptor; low concentration) |
| --- | --- | --- | --- | --- | --- | --- | --- | --- | --- | --- | --- | --- | --- | --- | --- | --- | --- | --- | --- |
| 1 -acyl-2-hydroxy-sn-glycero-3-phosphate [LPA] | 204 | 72.25 | 14.1 | 55.4 | 220 | 79.54 μm | up to 3 months | formed distinguishable neurospheres | still detected | ~100% | expressed both AC133 and Sca-1 antigens |  |  |  |  |  |  |  |  |
| CCCCCCCC(=O)OC[C@H](COP(=O)(O)OP(=O)(O)O)OC(=O)CCCCCCC [DGPP, diacyl-glycerol pyrophosphate] |  |  |  |  |  |  |  |  |  |  |  | significantly reduced | not | significantly reduced | decreased considerably | specifically inhibited | blocks | blocks | preferentially inhibit |
